According to patent US5451564A, “Antimicrobial composition comprising N-hydroxy heterocyclic thiones” (priority 1991, dated 1995):
Like-named read-outs stand apart in the source and are kept apart here.

Key:
[1] = tested on: mixed suspension of Pseudomonas aeruginosa, Proteus rettgeri, Serratia marcescans, Aeromonas hydrophila, Alcaligenes species, Pseudomonas cepacia and …; test: repeated bacterial challenge test in acrylic (emulsion) paint; type: cell-based, mixed bacteria; parameters: key: 5: Confluent growth; 4: Heavy growth; 3: Moderate growth; 2: Slight growth; 1: Trace growth; 0: No growth
Experimental: (§1) An inoculum was prepared containing Pseudomonas aeruginosa, Proteus rettgeri, Serratia marcescans, Aeromonas hydrophila, Alcaligenes species, Pseudomonas cepacia and Pseudomonas putida by culturing the individual organisms onto nutrient agar and incubating for 24 hours at 30° C. Each of the individual suspensions of the test organisms were then prepared at a concentration of 10E8 cfu/ml in one quarter strength Ringer's solution by means of a Thoma counting chamber. A mixed suspension was obtained by mixing equal volumes of the individual suspensions. This procedure was repeated for each of the three challenges to which the test substrates were subjected, and the concentration of micro-organisms in each substrate after challenge was 2×10E6 cfu/ml.
(§2) Aliquots (50 parts) of a standard laboratory acrylic latex and an emulsion paint were prepared containing 0, 10, 25, 50, 100, 125, 250, 500 and 750 ppm of the 1:2 zinc complex of 3-hydroxy-4-methylthiazol-2(3H)thione which was prepared as a 1% dispersion in an aqueous solution of 0.1M tetrasodium pyrophosphate. A 1% dispersion of the 1:2 zinc complex of 1-hydroxy-2-pyridinethiol in an aqueous solution of 0.1M tetrasodiumpyrophosphate was evaluated in the same manner.
(§3) The test substrates were then stored at 40° C. for seven days and were then challenged on three separate occasions with 1 part by volume of the mixed suspension of micro-organisms. All the substrates were then incubated at 30° C. and examined for the presence of viable bacteria after 1, 3 and 7 days after each challenge (Phase 1).
(§4) Those samples which had achieved sterility were then stored for a further 8 weeks at 30° C., and were then rechallenged and the number of viable organisms again determined (Phase 2).
(§5) Viable bacteria were detected by streaking small aliquots onto nutrient agar followed by incubation at 30° C. for 2 days. The presence or absence of colonies was determined visually. […]

[2] = tested on: mixed suspension of Pseudomonas aeruginosa, Proteus rettgeri, Serratia marcescans, Aeromonas hydrophila, Alcaligenes species, Pseudomonas cepacia and …; type: cell-based, mixed bacteria; parameters: key: 5: Confluent growth; 4: Heavy growth; 3: Moderate growth; 2: Slight growth; 1: Trace growth; 0: No growth
Experimental: as §1, §2, §3, §4, §5

[3] = aqueous solubility of zinc complex after milling in pyrophosphate solution and dilution with distilled water until clear; type: physicochemical
Experimental: The concentration of the 2:1 zinc complex was then determined.
The zinc complex was milled in a 0.1 molar solution of tetrasodium pyrophosphate as described in Example 1. This was then diluted with distilled water until a clear solution was obtained.
These solutions were prepared by the method described in Example 1.

Cc1csc(=S)n1[O-].Cc1csc(=S)n1[O-].[Zn+2] [Compound A, 1:2 zinc complex of 3-hydroxy-4-methylthiazol-2(3H)thione]
growth rating ([1]; paint 10 ppm, Phase 1 Chall 1, day 1): 5
growth rating ([1]; paint 10 ppm, Phase 1 Chall 1, day 3): 5
growth rating ([1]; paint 10 ppm, Phase 1 Chall 1, day 7): 0
growth rating ([1]; paint 10 ppm, Phase 1 Chall 2, day 1): 5
growth rating ([1]; paint 10 ppm, Phase 1 Chall 2, day 3): 5
growth rating ([1]; paint 10 ppm, Phase 1 Chall 2, day 7): 5
growth rating ([1]; paint 10 ppm, Phase 1 Chall 3, day 1): 5
growth rating ([1]; paint 10 ppm, Phase 1 Chall 3, day 3): 5
growth rating ([1]; paint 10 ppm, Phase 1 Chall 3, day 7): 5
growth rating ([1]; paint 25 ppm, Phase 1 Chall 1, day 1): 5
growth rating ([1]; paint 25 ppm, Phase 1 Chall 1, day 3): 3
growth rating ([1]; paint 25 ppm, Phase 1 Chall 1, day 7): 0
growth rating ([1]; paint 25 ppm, Phase 1 Chall 2, day 1): 5
growth rating ([1]; paint 25 ppm, Phase 1 Chall 2, day 3): 4
growth rating ([1]; paint 25 ppm, Phase 1 Chall 2, day 7): 0
growth rating ([1]; paint 25 ppm, Phase 1 Chall 3, day 1): 5
growth rating ([1]; paint 25 ppm, Phase 1 Chall 3, day 3): 5
growth rating ([1]; paint 25 ppm, Phase 1 Chall 3, day 7): 4
growth rating ([1]; paint 50 ppm, Phase 1 Chall 1, day 1): 5
growth rating ([1]; paint 50 ppm, Phase 1 Chall 1, day 3): 3
growth rating ([1]; paint 50 ppm, Phase 1 Chall 1, day 7): 0
growth rating ([1]; paint 50 ppm, Phase 1 Chall 2, day 1): 5
growth rating ([1]; paint 50 ppm, Phase 1 Chall 2, day 3): 4
growth rating ([1]; paint 50 ppm, Phase 1 Chall 2, day 7): 0
growth rating ([1]; paint 50 ppm, Phase 1 Chall 3, day 1): 5
growth rating ([1]; paint 50 ppm, Phase 1 Chall 3, day 3): 4
growth rating ([1]; paint 50 ppm, Phase 1 Chall 3, day 7): 0
growth rating ([1]; paint 100 ppm, Phase 1 Chall 1, day 1): 5
growth rating ([2]; latex 10 ppm, Phase 1 Chall 1, day 1): 5
growth rating ([2]; latex 10 ppm, Phase 1 Chall 1, day 3): 5
growth rating ([2]; latex 10 ppm, Phase 1 Chall 1, day 7): 4
growth rating ([2]; latex 10 ppm, Phase 1 Chall 2, day 1): 5
growth rating ([2]; latex 10 ppm, Phase 1 Chall 2, day 3): 5
growth rating ([2]; latex 10 ppm, Phase 1 Chall 2, day 7): 5
growth rating ([2]; latex 10 ppm, Phase 1 Chall 3, day 1): 5
growth rating ([2]; latex 10 ppm, Phase 1 Chall 3, day 3): 5
growth rating ([2]; latex 10 ppm, Phase 1 Chall 3, day 7): 5
growth rating ([2]; latex 25 ppm, Phase 1 Chall 1, day 1): 5
growth rating ([2]; latex 25 ppm, Phase 1 Chall 1, day 3): 5
growth rating ([2]; latex 25 ppm, Phase 1 Chall 1, day 7): 4
growth rating ([2]; latex 25 ppm, Phase 1 Chall 2, day 1): 5
growth rating ([2]; latex 25 ppm, Phase 1 Chall 2, day 3): 5
growth rating ([2]; latex 25 ppm, Phase 1 Chall 2, day 7): 3
growth rating ([2]; latex 25 ppm, Phase 1 Chall 3, day 1): 5
growth rating ([2]; latex 25 ppm, Phase 1 Chall 3, day 3): 5
growth rating ([2]; latex 25 ppm, Phase 1 Chall 3, day 7): 5
growth rating ([2]; latex 50 ppm, Phase 1 Chall 1, day 1): 5
growth rating ([2]; latex 50 ppm, Phase 1 Chall 1, day 3): 2
growth rating ([2]; latex 50 ppm, Phase 1 Chall 1, day 7): 2
growth rating ([2]; latex 50 ppm, Phase 1 Chall 2, day 1): 5
growth rating ([2]; latex 50 ppm, Phase 1 Chall 2, day 3): 4
growth rating ([2]; latex 50 ppm, Phase 1 Chall 2, day 7): 0
growth rating ([2]; latex 50 ppm, Phase 1 Chall 3, day 1): 5
growth rating ([2]; latex 50 ppm, Phase 1 Chall 3, day 3): 4
growth rating ([2]; latex 50 ppm, Phase 1 Chall 3, day 7): 0
growth rating ([2]; latex 100 ppm, Phase 1 Chall 1, day 1): 5
growth rating ([2]; latex 100 ppm, Phase 1 Chall 1, day 3): 3
growth rating ([2]; latex 100 ppm, Phase 1 Chall 1, day 7): 0
growth rating ([2]; latex 100 ppm, Phase 1 Chall 2, day 1): 4
growth rating ([2]; latex 100 ppm, Phase 1 Chall 2, day 3): 4
growth rating ([2]; latex 100 ppm, Phase 1 Chall 2, day 7): 0
growth rating ([2]; latex 100 ppm, Phase 1 Chall 3, day 1): 4
growth rating ([2]; latex 100 ppm, Phase 1 Chall 3, day 3): 4
growth rating ([2]; latex 100 ppm, Phase 1 Chall 3, day 7): 0
growth rating ([2]; latex 125 ppm, Phase 1 Chall 1, day 1): 5
growth rating ([2]; latex 125 ppm, Phase 1 Chall 1, day 3): 3
growth rating ([2]; latex 125 ppm, Phase 1 Chall 1, day 7): 0
growth rating ([2]; latex 125 ppm, Phase 1 Chall 2, day 1): 4
growth rating ([2]; latex 125 ppm, Phase 1 Chall 2, day 3): 4
growth rating ([2]; latex 125 ppm, Phase 1 Chall 2, day 7): 0
growth rating ([2]; latex 125 ppm, Phase 1 Chall 3, day 1): 4
growth rating ([2]; latex 125 ppm, Phase 1 Chall 3, day 3): 4
growth rating ([2]; latex 125 ppm, Phase 1 Chall 3, day 7): 0
growth rating ([2]; latex 250 ppm, Phase 1 Chall 1, day 1): 5
growth rating ([2]; latex 250 ppm, Phase 1 Chall 1, day 3): 3
growth rating ([2]; latex 250 ppm, Phase 1 Chall 1, day 7): 0
growth rating ([2]; latex 250 ppm, Phase 1 Chall 2, day 1): 4
growth rating ([2]; latex 250 ppm, Phase 1 Chall 2, day 3): 4
growth rating ([2]; latex 250 ppm, Phase 1 Chall 2, day 7): 0
growth rating ([2]; latex 250 ppm, Phase 1 Chall 3, day 1): 4
growth rating ([2]; latex 250 ppm, Phase 1 Chall 3, day 3): 4
growth rating ([2]; latex 250 ppm, Phase 1 Chall 3, day 7): 0
growth rating ([2]; latex 500 ppm, Phase 1 Chall 1, day 1): 5
growth rating ([2]; latex 500 ppm, Phase 1 Chall 1, day 3): 3
growth rating ([2]; latex 500 ppm, Phase 1 Chall 1, day 7): 0
growth rating ([2]; latex 500 ppm, Phase 1 Chall 2, day 1): 4
growth rating ([2]; latex 500 ppm, Phase 1 Chall 2, day 3): 4
growth rating ([2]; latex 500 ppm, Phase 1 Chall 2, day 7): 0
growth rating ([2]; latex 500 ppm, Phase 1 Chall 3, day 1): 3
growth rating ([2]; latex 500 ppm, Phase 1 Chall 3, day 3): 2
growth rating ([2]; latex 500 ppm, Phase 1 Chall 3, day 7): 0
growth rating ([2]; latex 750 ppm, Phase 1 Chall 1, day 1): 4
growth rating ([2]; latex 750 ppm, Phase 1 Chall 1, day 3): 2
growth rating ([2]; latex 750 ppm, Phase 1 Chall 1, day 7): 0
growth rating ([2]; latex 750 ppm, Phase 1 Chall 2, day 1): 3
growth rating ([2]; latex 750 ppm, Phase 1 Chall 2, day 3): 3
growth rating ([2]; latex 750 ppm, Phase 1 Chall 2, day 7): 0
growth rating ([2]; latex 750 ppm, Phase 1 Chall 3, day 1): 2
growth rating ([2]; latex 750 ppm, Phase 1 Chall 3, day 3): 0
growth rating ([2]; latex 750 ppm, Phase 1 Chall 3, day 7): 0
aqueous solubility ([3]; finely milled sample, no pyrophosphate): about 5 ppm
solubility in the presence of the pyrophosphate anion ([3]; milled in 0.1 molar tetrasodium pyrophosphate, diluted with distilled water): about 10,000 ppm
